Assay results taken from patent US10993933B2, “Oral dosage forms of bendamustine” (ASTELLAS DEUTSCHLAND GMBH, priority 2010, dated 2021).

Legend:
[1] = Phase 1 crossover study, plasma pharmacokinetics after oral and i.v. bendamustine (Example 8); settings: for AUCinf / AUClast / Cmax / t1/2 / tmax: mean, n=11; for Mean AUCinf of bendamustine relative to that of the metabolite (times higher) / exposure relative to that of bendamustine / AUCinf after oral administration as % of AUCinf after intravenous administration: patients; for Mean AUCinf of bendamustine relative to that of the metabolite (times higher) / exposure relative to that of bendamustine: oral administration; for AUCinf after oral administration as % of AUCinf after intravenous administration: 90% CI M3: 76%, 98%, M4: 77%, 102%
Procedure: An open label, randomized two-way crossover study to assess the absolute bioavailability of oral bendamustine in patients with cancer was conducted to assess the absolute bioavailability of bendamustine administered as an oral formulation (example 2). Besides assessing the pharmacokinetics of bendamustine in plasma following oral and i.v. administration, a further objective was to evaluate the safety and tolerability of bendamustine following i.v. and especially oral administration of the formulation of example 2.
14 patients who were suffering from multiple myeloma, B-cell type chronic lymphocytic leukemia or advanced indolent non-Hodgkin's lymphoma were enrolled and were treated with bendamustine. […] After signing the informed consent form and following the screening period (days −21 to −2), eligible patients were assigned a patient number which was specific for each study site. Patients were randomized to receive one of the following on day 1 followed by the other on day 8: • a single oral dose of 110.2 mg (2×55.1 mg) bendamustine HCl • a single intravenous dose of 100 mg bendamustine HCl
Bendamustine was provided a) orally as capsules, a LFHC formulation (liquid-filled, hard-shell capsule) and b) intravenously as a solution after reconstituting a powder for the preparation of a solution for injection. The LFHC formulation (per capsule) was prepared from 55.1 mg bendamustine hydrochloride, 1.2 mg methylparaben, 0.12 mg […], 0.12 mg butylated hydroxytoluene, 10.9 mg ethanol and 532.56 mg CREMOPHOR RH40. The vial with powder for concentrate for solution was the marketed product in Germany (RIBOMUSTINE) which contains per vial 100 mg of bendamustine hydrochloride and mannitol as an excipient. This product was reconstituted with water for injection to a final concentration of 2.5 mg/ml of bendamustine HCl and was further diluted with 0.9% NaCl until about 500 ml before administration to the patient, in accordance with the instructions of the package insert.
Patients were admitted to the study site for 2 periods; days −1 to 2 (period 1) and days 7 to 9 (period 2). A total of 12 patients was to be randomized to receive treatment. Six patients were to receive treatment with a single oral dose of 110.2 mg (2×55.1 mg) bendamustine HCl (day 1) followed by a single intravenous dose of 100 mg bendamustine HCl (day 8) while 6 other patients were to receive treatment in the alternate order. Patients underwent a washout period of at least 7 days between treatments.
After oral and intravenous administration of bendamustine the concentration of bendamustine, as well as that of the active metabolites of bendamustine (M3 and M4), were determined in plasma and urine samples on day 1 and day 8. Patients returned to the study site for an end-of-study visit 7 to 14 days after completion of the second treatment period, or after early discharge/withdrawal. Subsequently the pharmacokinetic parameters of bendamustine and its metabolites were calculated.

[2] = Phase 1 crossover study, urine pharmacokinetics (Example 8); assay type: in vivo, human; settings: for percentage of the dose excreted in urine as metabolite: patients, oral administration
From the text: Urine pharmacokinetic parameters of bendamustine, M3 and M4 are presented in Table 27, Table 28 and Table 29, respectively. The percentage of the dose excreted in urine unchanged was low (2.6% and 2.1% for oral and intravenous bendamustine, respectively).

[3] = M3 in plasma, Bendamustine HCl 100 mg intravenously
[4] = M3 in plasma, Bendamustine HCl 110.2 mg orally
[5] = M3 in urine, Bendamustine HCl 100 mg intravenously, mean, n=11
[6] = M3 in urine, Bendamustine HCl 100 mg intravenously, median, n=11
[7] = M3 in urine, Bendamustine HCl 100 mg intravenously, min-max, n=11
[8] = M3 in urine, Bendamustine HCl 110.2 mg orally, mean, n=10
[9] = M3 in urine, Bendamustine HCl 110.2 mg orally, median, n=10
[10] = M3 in urine, Bendamustine HCl 110.2 mg orally, min-max, n=10
[11] = M4 in plasma, Bendamustine HCl 100 mg intravenously
[12] = M4 in plasma, Bendamustine HCl 110.2 mg orally
[13] = M4 in urine, Bendamustine HCl 100 mg intravenously, mean, n=11
[14] = M4 in urine, Bendamustine HCl 100 mg intravenously, median, n=11
[15] = M4 in urine, Bendamustine HCl 100 mg intravenously, min-max, n=11
[16] = M4 in urine, Bendamustine HCl 110.2 mg orally, mean, n=10
[17] = M4 in urine, Bendamustine HCl 110.2 mg orally, median, n=10
[18] = M4 in urine, Bendamustine HCl 110.2 mg orally, min-max, n=10

Cn1c(C(O)CCC(=O)O)nc2cc(N(CCCl)CCCl)ccc21 (stereo not shown) [Batch M3, γ-hydroxybendamustine]
AUCinf [1, 3]: 372 ng·h/mL | AUClast [1, 3]: 370 ng·h/mL | Cmax [1, 3]: 344 ng/mL | t1/2 [1, 3]: 43.6 min | tmax [1, 3]: 49.4 min | AUCinf [1, 4]: 369 ng·h/mL | AUClast [1, 4]: 367 ng·h/mL | Cmax [1, 4]: 243 ng/mL | t1/2 [1, 4]: 38.6 min | tmax [1, 4]: 76.2 min | Mean AUCinf of bendamustine relative to that of the metabolite (times higher) [1]: 10.6 times | exposure relative to that of bendamustine [1]: approximately 9% | AUCinf after oral administration as % of AUCinf after intravenous administration [1]: 86% | % Aeinf [2, 5]: 0.459% | % Aelast [2, 5]: 0.457% | Aeinf [2, 5]: 0.435 mg | Aelast [2, 5]: 0.433 mg | CLR [2, 5]: 1.29 L/h | % Aeinf [2, 6]: 0.354% | % Aelast [2, 6]: 0.353% | Aeinf [2, 6]: 0.336 mg | Aelast [2, 6]: 0.334 mg | CLR [2, 6]: 0.856 L/h | % Aeinf [2, 7]: 0.018-1.6% | % Aelast [2, 7]: 0.018-1.6% | Aeinf [2, 7]: 0.017 to 1.6 mg | Aelast [2, 7]: 0.017 to 1.5 mg | CLR [2, 7]: 0.082 to 5.2 L/h | % Aeinf [2, 8]: 0.611% | % Aelast [2, 8]: 0.61% | Aeinf [2, 8]: 0.636 mg | Aelast [2, 8]: 0.635 mg | CLR [2, 8]: 2.14 L/h | % Aeinf [2, 9]: 0.537% | % Aelast [2, 9]: 0.553% | Aeinf [2, 9]: 0.558 mg | Aelast [2, 9]: 0.576 mg | CLR [2, 9]: 1.49 L/h | % Aeinf [2, 10]: 0.13-1.5% | % Aelast [2, 10]: 0.12-1.6% | Aeinf [2, 10]: 0.13 to 1.6 mg | Aelast [2, 10]: 0.13 to 1.7 mg | CLR [2, 10]: 0.45 to 7.4 L/h | percentage of the dose excreted in urine as metabolite [2]: 0.6%

O=C(O)CCCc1nc2cc(N(CCCl)CCCl)ccc2[nH]1 [Batch M4, N-desmethylbendamustine]
AUCinf [1, 11]: 42.5 ng·h/mL | AUClast [1, 11]: 40.8 ng·h/mL | Cmax [1, 11]: 33.6 ng/mL | t1/2 [1, 11]: 32.6 min | tmax [1, 11]: 56.1 min | AUCinf [1, 12]: 44.4 ng·h/mL | AUClast [1, 12]: 42.8 ng·h/mL | Cmax [1, 12]: 26.9 ng/mL | t1/2 [1, 12]: 30.9 min | tmax [1, 12]: 79.5 min | Mean AUCinf of bendamustine relative to that of the metabolite (times higher) [1]: 88 times | exposure relative to that of bendamustine [1]: ~1% | AUCinf after oral administration as % of AUCinf after intravenous administration [1]: 88% | % Aeinf [2, 13]: 0.081% | % Aelast [2, 13]: 0.086% | Aeinf [2, 13]: 0.071 mg | Aelast [2, 13]: 0.075 mg | CLR [2, 13]: 1.74 L/h | % Aeinf [2, 14]: 0.045% | % Aelast [2, 14]: 0.043% | Aeinf [2, 14]: 0.039 mg | Aelast [2, 14]: 0.038 mg | CLR [2, 14]: 1.66 L/h | % Aeinf [2, 15]: 0.0039-0.17% | % Aelast [2, 15]: 0.0028-0.21% | Aeinf [2, 15]: 0.0034 to 0.15 mg | Aelast [2, 15]: 0.0025 to 0.18 mg | CLR [2, 15]: 0.18 to 5.3 L/h | % Aeinf [2, 16]: 0.109% | % Aelast [2, 16]: 0.113% | Aeinf [2, 16]: 0.105 mg | Aelast [2, 16]: 0.109 mg | CLR [2, 16]: 2.83 L/h | % Aeinf [2, 17]: 0.104% | % Aelast [2, 17]: 0.104% | Aeinf [2, 17]: 0.1 mg | Aelast [2, 17]: 0.1 mg | CLR [2, 17]: 2.24 L/h | % Aeinf [2, 18]: 0.034-0.22% | % Aelast [2, 18]: 0.019-0.21% | Aeinf [2, 18]: 0.033 to 0.21 mg | Aelast [2, 18]: 0.019 to 0.21 mg | CLR [2, 18]: 0.78 to 7.1 L/h | percentage of the dose excreted in urine as metabolite [2]: 0.1%
